From ChEMBL document CHEMBL1151875, “Design and synthesis of a novel tyrosine kinase inhibitor template” (Bioorg Med Chem, 2009)

Legend:
[1] = biological target: ALK tyrosine kinase receptor (Homo sapiens, UniProt Q9UM73); assay: Inhibition of 6xHis-tagged human NPM-ALK expressed in insect cells
[2] = biological target: Insulin receptor (Homo sapiens, UniProt P06213); assay: Inhibition of human recombinant IRK
[3] = biological target: Insulin-like growth factor 1 receptor (Homo sapiens, UniProt P08069); assay: Inhibition of recombinant IGFR1
[4] = biological target: Tyrosine-protein kinase JAK2 (Homo sapiens, UniProt O60674); assay: Inhibition of recombinant JAK2
Tyrosine-protein kinase JAK2, sequence (O60674 whole entry): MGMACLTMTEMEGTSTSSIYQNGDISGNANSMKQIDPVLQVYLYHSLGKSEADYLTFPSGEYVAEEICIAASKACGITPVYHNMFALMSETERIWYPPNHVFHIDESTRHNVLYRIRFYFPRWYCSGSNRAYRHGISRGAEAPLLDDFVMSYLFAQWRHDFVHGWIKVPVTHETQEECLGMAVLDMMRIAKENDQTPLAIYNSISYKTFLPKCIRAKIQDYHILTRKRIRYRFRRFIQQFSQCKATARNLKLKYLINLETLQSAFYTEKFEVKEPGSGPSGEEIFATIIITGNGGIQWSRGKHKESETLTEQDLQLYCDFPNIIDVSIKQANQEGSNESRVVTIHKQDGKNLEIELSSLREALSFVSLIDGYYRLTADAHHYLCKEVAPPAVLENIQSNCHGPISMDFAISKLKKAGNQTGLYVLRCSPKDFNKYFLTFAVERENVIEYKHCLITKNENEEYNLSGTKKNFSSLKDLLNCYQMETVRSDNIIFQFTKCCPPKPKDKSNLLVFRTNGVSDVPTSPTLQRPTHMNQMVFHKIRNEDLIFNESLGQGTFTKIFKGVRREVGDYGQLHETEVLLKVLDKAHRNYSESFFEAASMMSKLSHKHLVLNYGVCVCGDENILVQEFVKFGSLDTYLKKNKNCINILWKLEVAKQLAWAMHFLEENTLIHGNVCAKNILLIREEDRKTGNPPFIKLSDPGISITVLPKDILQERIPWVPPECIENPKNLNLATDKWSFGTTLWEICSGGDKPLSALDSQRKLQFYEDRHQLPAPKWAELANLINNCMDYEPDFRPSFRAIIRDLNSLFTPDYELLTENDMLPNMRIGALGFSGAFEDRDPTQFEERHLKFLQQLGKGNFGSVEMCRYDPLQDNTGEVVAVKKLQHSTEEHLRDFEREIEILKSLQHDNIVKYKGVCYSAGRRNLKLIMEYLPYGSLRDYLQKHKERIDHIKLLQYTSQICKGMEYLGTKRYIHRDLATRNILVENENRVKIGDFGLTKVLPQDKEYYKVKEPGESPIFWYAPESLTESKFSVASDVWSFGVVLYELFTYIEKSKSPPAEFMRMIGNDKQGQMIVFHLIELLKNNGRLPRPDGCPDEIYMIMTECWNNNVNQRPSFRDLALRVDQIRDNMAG

[5] = biological target: Hepatocyte growth factor receptor (Homo sapiens, UniProt P08581); assay: Inhibition of recombinant MET
Hepatocyte growth factor receptor, sequence (P08581 whole entry): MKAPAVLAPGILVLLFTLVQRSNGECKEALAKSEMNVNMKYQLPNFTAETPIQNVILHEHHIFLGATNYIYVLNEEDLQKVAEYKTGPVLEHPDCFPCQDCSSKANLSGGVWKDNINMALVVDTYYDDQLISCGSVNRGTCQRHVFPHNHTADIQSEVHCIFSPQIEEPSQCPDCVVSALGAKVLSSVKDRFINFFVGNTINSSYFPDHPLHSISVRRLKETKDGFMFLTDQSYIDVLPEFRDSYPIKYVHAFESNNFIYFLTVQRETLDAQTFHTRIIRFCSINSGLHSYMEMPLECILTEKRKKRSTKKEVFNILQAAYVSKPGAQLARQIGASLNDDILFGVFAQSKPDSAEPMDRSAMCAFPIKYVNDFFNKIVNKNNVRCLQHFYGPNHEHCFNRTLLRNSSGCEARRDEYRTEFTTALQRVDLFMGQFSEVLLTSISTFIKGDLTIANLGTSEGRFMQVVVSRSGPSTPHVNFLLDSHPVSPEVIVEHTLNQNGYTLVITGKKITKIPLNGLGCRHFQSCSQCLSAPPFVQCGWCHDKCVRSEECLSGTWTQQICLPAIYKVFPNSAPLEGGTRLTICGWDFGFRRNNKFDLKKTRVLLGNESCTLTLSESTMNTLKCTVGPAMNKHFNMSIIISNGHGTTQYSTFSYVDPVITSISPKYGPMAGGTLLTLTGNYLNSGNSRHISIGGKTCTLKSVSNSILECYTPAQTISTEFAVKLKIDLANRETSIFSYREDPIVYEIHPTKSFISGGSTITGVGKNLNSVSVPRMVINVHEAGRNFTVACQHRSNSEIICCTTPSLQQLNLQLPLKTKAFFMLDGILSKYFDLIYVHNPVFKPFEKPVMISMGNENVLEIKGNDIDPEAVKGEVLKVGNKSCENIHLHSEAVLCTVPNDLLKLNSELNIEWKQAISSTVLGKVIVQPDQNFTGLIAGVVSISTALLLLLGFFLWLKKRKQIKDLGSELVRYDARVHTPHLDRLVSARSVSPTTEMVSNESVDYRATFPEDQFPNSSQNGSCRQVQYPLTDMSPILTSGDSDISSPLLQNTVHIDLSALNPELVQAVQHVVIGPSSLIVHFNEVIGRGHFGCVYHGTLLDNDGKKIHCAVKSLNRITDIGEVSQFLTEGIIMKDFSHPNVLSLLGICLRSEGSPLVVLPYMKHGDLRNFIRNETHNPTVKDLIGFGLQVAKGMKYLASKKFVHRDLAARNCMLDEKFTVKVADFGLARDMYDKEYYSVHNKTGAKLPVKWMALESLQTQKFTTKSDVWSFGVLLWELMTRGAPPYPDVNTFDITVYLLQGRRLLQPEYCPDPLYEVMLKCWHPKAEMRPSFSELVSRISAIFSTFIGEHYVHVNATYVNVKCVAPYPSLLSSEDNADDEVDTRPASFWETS

Insulin receptor, sequence (P06213 28-758 limits assumed): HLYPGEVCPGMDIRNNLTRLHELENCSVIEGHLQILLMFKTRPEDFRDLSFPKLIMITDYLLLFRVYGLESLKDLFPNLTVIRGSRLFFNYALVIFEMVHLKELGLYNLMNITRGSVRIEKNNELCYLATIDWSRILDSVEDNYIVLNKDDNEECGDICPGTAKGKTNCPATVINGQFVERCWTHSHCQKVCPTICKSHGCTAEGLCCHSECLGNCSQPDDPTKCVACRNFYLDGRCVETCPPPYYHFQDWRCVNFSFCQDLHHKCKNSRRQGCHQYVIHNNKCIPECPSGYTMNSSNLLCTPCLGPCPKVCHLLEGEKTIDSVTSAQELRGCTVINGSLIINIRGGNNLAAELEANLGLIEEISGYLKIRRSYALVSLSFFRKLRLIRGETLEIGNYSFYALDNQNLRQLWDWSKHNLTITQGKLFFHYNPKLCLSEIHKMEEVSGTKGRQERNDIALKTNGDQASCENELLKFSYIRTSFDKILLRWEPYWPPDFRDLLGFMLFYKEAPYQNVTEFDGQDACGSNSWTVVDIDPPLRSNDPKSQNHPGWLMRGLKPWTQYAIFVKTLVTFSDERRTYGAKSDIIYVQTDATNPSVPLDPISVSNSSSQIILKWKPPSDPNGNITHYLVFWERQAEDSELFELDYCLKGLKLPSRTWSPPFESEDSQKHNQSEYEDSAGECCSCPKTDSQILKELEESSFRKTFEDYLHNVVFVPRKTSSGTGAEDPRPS
Insulin receptor, sequence (P06213 763-1382 limits assumed): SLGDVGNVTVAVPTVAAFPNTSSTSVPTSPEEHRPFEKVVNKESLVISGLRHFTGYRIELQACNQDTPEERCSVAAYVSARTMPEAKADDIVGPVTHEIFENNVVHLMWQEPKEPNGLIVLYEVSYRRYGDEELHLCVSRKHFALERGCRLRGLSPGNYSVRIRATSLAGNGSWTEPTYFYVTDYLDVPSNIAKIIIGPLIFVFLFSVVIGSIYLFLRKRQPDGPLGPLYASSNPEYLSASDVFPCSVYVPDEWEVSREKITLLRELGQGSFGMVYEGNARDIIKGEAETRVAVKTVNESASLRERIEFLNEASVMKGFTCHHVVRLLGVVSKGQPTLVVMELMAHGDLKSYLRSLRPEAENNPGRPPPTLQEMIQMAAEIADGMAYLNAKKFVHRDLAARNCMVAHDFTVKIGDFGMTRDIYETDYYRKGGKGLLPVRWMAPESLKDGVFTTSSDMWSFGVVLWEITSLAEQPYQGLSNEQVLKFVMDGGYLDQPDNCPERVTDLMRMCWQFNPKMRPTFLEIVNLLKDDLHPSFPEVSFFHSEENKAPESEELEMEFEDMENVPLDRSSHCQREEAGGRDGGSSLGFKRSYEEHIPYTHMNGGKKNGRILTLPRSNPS

SMILES	IC50 [1] [µM]	IC50 [2] [µM]	IC50 [3] [µM]	IC50 [4] [µM]	IC50 [5] [µM]
COc1nc(C)cc2c1-c1[nH]c3ccccc3c1CCN2CCc1ccccc1	> 40	> 40	> 40	> 40	> 40
Cc1cc2c(c(=O)[nH]1)-c1[nH]c3ccccc3c1CCN2CCc1ccccc1	18	15.6	11.8	16.9	19.7
COc1cc(C)nc2c1-c1[nH]c3ccccc3c1CCN2CCc1ccccc1	> 40	> 40	> 40	> 40	> 40
Cc1cc2c(c(Cl)n1)-c1[nH]c3ccccc3c1CCN2CCc1ccccc1	21.3	30.5	24.7	33.5	26.1
COc1nc(C)cc2c1-c1[nH]c3cc(N4CCN(C)CC4)ccc3c1CCN2CCc1ccccc1	5.1	3.5	4.5	5.1	5.5
Cc1cc(Cl)c2c(n1)N(CCc1ccccc1)CCc1c-2[nH]c2ccccc12	11.8	19.8	12.6	> 40	12.4
Oc1ccc(CCN2CCc3c([nH]c4ccc(Br)cc34)-c3c(I)ccnc32)cc1	6.2	11.1	–	–	9.7

Next, values leading:

IC50 [1] [µM]	IC50 [2] [µM]	IC50 [3] [µM]	IC50 [4] [µM]	IC50 [5] [µM]	SMILES
9.3	> 40	–	–	> 40	Clc1nccc2c1-c1[nH]c3ccc(Br)cc3c1CCN2CCc1c[nH]c2ccccc12
5.8	11.9	–	–	12.9	C[C@@H](c1ccccc1)N1CCc2c([nH]c3ccc(Br)cc23)-c2c1ccnc2Cl
8.3	> 40	–	–	> 40	C[C@@H](c1ccccc1)N1CCc2c([nH]c3ccc(Br)cc23)-c2c(I)ccnc21
> 40	> 40	–	–	> 40	Clc1nccc2c1-c1[nH]c3ccc(Br)cc3c1CCN2CC(c1ccccc1)c1ccccc1
5	> 40	–	–	8.6	Brc1ccc2[nH]c3c(c2c1)CCN(CC(c1ccccc1)c1ccccc1)c1nccc(I)c1-3
7.1	> 40	–	–	12.5	Oc1ccc(CCN2CCc3c([nH]c4ccc(Br)cc34)-c3c2ccnc3Cl)cc1
